The values that follow come from patent US3933859A, “Dihydrocoumarin derivatives” (Hoffmann-La Roche, Inc., priority 1970, dated 1976).

Counter-ions that a name gives are not always drawn.

A short description of series [1]: LD50 of the hydrochloride. The following applies: in vivo. How it is done:
(§1) The novel compounds of formulae VII and VIII and their salts are useful for lowering the blood-pressure and for chemical sympathectomy. Thus, for example, after orally administering five separate doses each comprising 300 μmol/kg of L-6,7-diacetoxy-3-amino-hydrocoumarin hydrochloride to rats over a period of 48 hours, the noradrenaline content is lowered in the heart to 28% and in the brain to 85% of the controls. The LD50 of this hydrochloride amounts to 30-60 mg/kg i.v., 250-500 mg/kg s.c. and 1,000-2,000 mg/kg p.o.

Series [2] has as its system noradrenaline. Description: noradrenaline content lowering after oral administration to rats. The series is classed as in vivo, rat. Conditions: five separate oral doses each 300 μmol/kg over 48 hours. How it is done: as §1

In the case of `CC(=O)Oc1cc2c(cc1OC(C)=O)OC(=O)[C@@H](N)C2` [L-6,7-diacetoxy-3-aminohydrocoumarin hydrochloride], the values for the LD50 in series [1] (iv), in series [1] (po) and in series [1] (sc) were 30 to 60 mg/kg, 1000 to 2000 mg/kg and 250 to 500 mg/kg, respectively. Besides, the “noradrenaline content in the brain, lowered to % of the controls” value in series [2] (brain) was 85%. For the same compound, in series [2] (heart), the “noradrenaline content in the heart, lowered to % of the controls” value was 28%.
